Activity calls are given as the source filed them.
Assays:
Coagulation factor XII = biological target: T1, Coagulation factor XII (Homo sapiens, UniProt P00748); type: functional;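 note: activated factor XIIa alpha cleaving a fluorogenic AMC peptide substrate; inhibitor potency from loss of enzyme activity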
T1 sequence (P00748 whole entry): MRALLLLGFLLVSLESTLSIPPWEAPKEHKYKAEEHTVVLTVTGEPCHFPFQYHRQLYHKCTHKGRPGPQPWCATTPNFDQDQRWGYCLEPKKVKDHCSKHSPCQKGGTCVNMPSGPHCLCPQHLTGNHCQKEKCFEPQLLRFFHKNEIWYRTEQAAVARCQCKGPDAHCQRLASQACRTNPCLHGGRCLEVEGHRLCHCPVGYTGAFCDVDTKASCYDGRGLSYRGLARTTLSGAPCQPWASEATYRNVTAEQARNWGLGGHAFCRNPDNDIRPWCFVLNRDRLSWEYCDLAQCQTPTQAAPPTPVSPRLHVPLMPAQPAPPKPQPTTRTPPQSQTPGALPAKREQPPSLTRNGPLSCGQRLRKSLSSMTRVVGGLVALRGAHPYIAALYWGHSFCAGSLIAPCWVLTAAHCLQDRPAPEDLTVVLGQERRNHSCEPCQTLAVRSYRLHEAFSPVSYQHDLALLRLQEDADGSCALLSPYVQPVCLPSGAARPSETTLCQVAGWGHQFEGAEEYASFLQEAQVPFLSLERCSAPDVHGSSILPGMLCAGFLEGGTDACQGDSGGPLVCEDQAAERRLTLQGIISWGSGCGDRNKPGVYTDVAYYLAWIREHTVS

[1] = Counterscreen for inhibitors of Trypanosoma brucei methionyl tRNA synthetase (MetRS): Luminescence-based cell-based high throughput dose response assay to identify compounds that are cytotoxic to Jurkat human T lymphocyte cells.; type: functional
[2] = biological target: T2, Methionyl-tRNA synthetase, putative (Trypanosoma brucei brucei, UniProt Q38C91); type: functional, Trypanosoma brucei brucei strain 927/4 GUTat10.1
T2 sequence (Q38C91 whole entry): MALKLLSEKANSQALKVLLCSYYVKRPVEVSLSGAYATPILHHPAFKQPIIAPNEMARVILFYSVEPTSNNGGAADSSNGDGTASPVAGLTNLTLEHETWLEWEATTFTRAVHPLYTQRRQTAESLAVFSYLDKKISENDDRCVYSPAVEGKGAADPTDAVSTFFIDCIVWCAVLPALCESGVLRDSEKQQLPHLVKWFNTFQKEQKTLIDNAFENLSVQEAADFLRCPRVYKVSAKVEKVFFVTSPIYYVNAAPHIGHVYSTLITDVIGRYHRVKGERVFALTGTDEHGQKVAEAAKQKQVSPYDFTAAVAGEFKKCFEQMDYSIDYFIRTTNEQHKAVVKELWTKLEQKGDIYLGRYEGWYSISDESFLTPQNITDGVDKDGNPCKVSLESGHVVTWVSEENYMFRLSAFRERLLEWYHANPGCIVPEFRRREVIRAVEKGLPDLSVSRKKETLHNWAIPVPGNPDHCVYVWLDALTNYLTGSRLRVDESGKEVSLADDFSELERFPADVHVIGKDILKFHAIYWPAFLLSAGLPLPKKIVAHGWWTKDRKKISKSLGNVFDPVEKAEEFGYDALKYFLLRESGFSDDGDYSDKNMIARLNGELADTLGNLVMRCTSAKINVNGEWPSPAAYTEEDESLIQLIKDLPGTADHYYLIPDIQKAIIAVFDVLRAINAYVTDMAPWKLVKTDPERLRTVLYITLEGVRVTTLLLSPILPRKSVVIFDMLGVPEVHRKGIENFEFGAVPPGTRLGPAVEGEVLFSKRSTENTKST

[3] = biological target: T3, Heat shock factor protein 1 (Mus musculus, UniProt P38532); assay: enhancement of HSF1-driven luciferase signal – cell-based, NIH3T3, luminescence, dose retest, confirmation (AID 435004); type: functional;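 note: stress induced by proteasome inhibitor MG132 added 30 min after compound; luciferase reporter driven by HSF1 response element in NIH3T3 cells; actives raise luminescence as potentiators of the MG132 stress response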
T3 sequence (P38532 whole entry): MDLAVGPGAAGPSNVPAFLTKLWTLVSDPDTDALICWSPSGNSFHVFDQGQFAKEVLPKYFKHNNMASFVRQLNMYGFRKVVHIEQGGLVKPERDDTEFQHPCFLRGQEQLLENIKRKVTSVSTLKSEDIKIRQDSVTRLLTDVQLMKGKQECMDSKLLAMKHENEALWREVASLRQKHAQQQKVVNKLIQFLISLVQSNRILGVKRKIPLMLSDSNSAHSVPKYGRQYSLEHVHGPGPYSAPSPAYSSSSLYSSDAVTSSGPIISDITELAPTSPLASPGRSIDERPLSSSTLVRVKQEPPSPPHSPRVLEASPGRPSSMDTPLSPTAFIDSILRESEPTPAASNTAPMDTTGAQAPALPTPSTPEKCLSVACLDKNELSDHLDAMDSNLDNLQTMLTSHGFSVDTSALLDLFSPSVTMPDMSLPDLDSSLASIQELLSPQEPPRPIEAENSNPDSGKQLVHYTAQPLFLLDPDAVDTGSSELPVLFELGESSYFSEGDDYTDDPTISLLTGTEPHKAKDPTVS

[4] = biological target: T2, Methionyl-tRNA synthetase, putative; type: functional, Trypanosoma brucei brucei strain 927/4 GUTat10.1; remark: listed apart in the source
[5] = biological target: Dual specificity tyrosine-phosphorylation-regulated kinase 1A (Rattus norvegicus, UniProt Q63470); type: biochemical, Homo sapiens
[6] = biological target: Peroxisome proliferator-activated receptor gamma/Nuclear receptor coactivator 1 (Homo sapiens, UniProt P37231); assay: TR-FRET dose response biochemical High Throughput Screening assay for agonists of the steroid receptor coactivator 1 (SRC-1) recruitment by the peroxisome proliferator-activated receptor gamma (PPAR gamma): non-selective agonists. [Related pubchem assays (depositor defined):AID1300, AID1808, AID504735, AID631]; type: protein assay
Fatty acid synthase [7] = biological target: T4, Fatty acid synthase (Homo sapiens, UniProt P49327); assay: inhibition of human FAS-TE enzyme activity – biochemical, endpoint fluorescence intensity, uHTS hits, dose response (AID 624327); type: functional;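 note: fluorescence from hydrolysis of an O-methyl fluorescein acyl ester substrate by the enzyme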
[8] = biological target: Peroxisome proliferator-activated receptor gamma/Nuclear receptor coactivator 2 (Homo sapiens, UniProt P37231); assay: (§1) TR-FRET dose response biochemical High Throughput Screening assay for agonists of the steroid receptor coactivator 2 (SRC-2) recruitment by the peroxisome proliferator-activated receptor gamma (PPAR gamma): non-selective agonists. [Related pubchem assays: 1297, 1032 ]; type: functional
[9] = biological target: Peroxisome proliferator-activated receptor gamma/Nuclear receptor coactivator 3 (Homo sapiens, UniProt P37231); assay: as §1, with “3 (SRC-3)” for “2 (SRC-2)”, “1301 (Confirmation screen.), 1048 (Primary screen.)]” for “1297, 1032 ]”; type: functional
Fatty acid synthase [10] = biological target: T4, Fatty acid synthase; assay: inhibition of human FAS-TE enzyme activity – biochemical, kinetic fluorescence intensity, dose response (AID 624326); type: functional;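 note: rate of fluorescence rise from hydrolysis of a fluorogenic O-methyl fluorescein ester substrate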
SUMO-activating enzyme [11] = biological target: T5, SUMO-activating enzyme (Homo sapiens, UniProt Q9UBT2); assay: blockers of UBC9-mediated SUMO conjugation – biochemical, AlphaScreen, SUMOylation inhibitor project, confirmation (AID 2018); type: functional
Major prion protein = Major prion protein (Homo sapiens, UniProt P04156); type: functional, cell-based
SUMO-activating enzyme [12] = biological target: T5, SUMO-activating enzyme; assay: blockers of SAE1/SAE2–UBC9 SUMO transfer – biochemical, HTRF, uHTS, primary screen (AID 2006); type: protein-complex assay
[13] = biological target: T6, Short transient receptor potential channel 4 (Mus musculus, UniProt Q9QUQ5); assay: block of DAMGO-driven TRPC4 calcium entry – cell-based, HEK293 TRPC4/mu-opioid, Fluo-4 calcium, dose response (AID 434942); type: functional;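 note: potency of inhibitors blocking the TRPC4 calcium response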
T6 sequence (Q9QUQ5 whole entry): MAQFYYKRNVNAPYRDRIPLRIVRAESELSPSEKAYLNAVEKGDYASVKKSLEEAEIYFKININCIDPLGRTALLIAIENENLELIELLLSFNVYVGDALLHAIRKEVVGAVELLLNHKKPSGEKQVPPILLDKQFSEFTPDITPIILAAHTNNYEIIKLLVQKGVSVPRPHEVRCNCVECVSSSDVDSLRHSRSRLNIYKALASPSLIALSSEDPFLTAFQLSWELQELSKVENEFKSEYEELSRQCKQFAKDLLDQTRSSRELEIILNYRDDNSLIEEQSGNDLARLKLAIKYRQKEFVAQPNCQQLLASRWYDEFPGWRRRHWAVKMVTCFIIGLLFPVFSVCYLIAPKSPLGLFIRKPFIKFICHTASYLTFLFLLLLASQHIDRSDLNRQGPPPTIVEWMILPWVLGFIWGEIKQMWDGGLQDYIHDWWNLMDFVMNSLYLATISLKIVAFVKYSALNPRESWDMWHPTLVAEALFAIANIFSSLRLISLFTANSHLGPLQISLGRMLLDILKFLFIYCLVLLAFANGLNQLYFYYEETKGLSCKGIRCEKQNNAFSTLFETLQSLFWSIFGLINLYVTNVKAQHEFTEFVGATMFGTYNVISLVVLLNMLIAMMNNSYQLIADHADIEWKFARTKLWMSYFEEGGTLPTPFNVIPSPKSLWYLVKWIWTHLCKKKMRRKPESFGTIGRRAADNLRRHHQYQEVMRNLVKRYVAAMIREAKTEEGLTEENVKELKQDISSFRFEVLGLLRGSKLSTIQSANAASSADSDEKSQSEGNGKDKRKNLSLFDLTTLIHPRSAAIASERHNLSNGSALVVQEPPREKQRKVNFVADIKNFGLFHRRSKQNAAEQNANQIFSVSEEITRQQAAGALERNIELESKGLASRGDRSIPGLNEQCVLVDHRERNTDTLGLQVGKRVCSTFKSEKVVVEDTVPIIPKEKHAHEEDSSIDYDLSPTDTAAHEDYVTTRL

HEK293 [14] = assay: cells; type: functional, cell-based; details: Homo sapiens
HEK293 [15] = assay: NOD2 signaling inhibitors in MDP-stimulated cells, cell-based, uHTS, luminescence (AID 2001); type: functional; details: Homo sapiens
HEK293 [16] = assay: inhibition of NOD1-driven NF-kB reporter – cell-based, luminescence, uHTS, primary screen (AID 1578); type: functional; details: Homo sapiens
HEK293 [17] = assay: cells; type: functional, cell-based; details: Homo sapiens; remark: listed apart in the source
[18] = biological target: Photoreceptor-specific nuclear receptor (Homo sapiens, UniProt Q9Y5X4); type: functional, cell-based;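 note: CHO-S cells with Gal4-NCOR and VP16-NR2E3 two-hybrid luciferase reporter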
[19] = biological target: Glucose-6-phosphate 1-dehydrogenase (Homo sapiens, UniProt P11413); assay: inhibition of Homo sapiens G6PD, dose series – biochemical, fluorescence, selectivity assay for P. falciparum G6PD inhibitor project, dose response (AID 504792); type: functional
[20] = biological target: T7, Adenosylmethionine-8-amino-7-oxononanoate aminotransferase (Mycobacterium tuberculosis, UniProt P9WQ81); assay: Mycobacterium tuberculosis BioA enzyme inhibitor Measured in Biochemical System Using Plate Reader - 2163-02_Inhibitor_Dose_CherryPick_Activity.; type: functional, Mycobacterium tuberculosis UT205
T7 sequence (P9WQ81 whole entry): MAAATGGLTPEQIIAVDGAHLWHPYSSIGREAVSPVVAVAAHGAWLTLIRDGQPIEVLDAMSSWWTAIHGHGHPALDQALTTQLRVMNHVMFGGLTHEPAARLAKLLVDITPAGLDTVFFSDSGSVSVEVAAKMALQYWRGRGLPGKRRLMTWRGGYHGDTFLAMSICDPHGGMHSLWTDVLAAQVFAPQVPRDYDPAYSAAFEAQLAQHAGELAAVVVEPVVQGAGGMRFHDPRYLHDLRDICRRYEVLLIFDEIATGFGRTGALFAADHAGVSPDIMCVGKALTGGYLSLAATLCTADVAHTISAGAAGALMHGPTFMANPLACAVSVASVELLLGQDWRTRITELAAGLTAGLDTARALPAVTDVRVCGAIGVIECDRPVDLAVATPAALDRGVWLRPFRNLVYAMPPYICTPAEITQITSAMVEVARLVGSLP

O=C(NNc1c(Cl)cc(Cl)cc1Cl)c1nnc(O)c2ccccc12
IC50 (Coagulation factor XII): > 50 µM (inactive)

CCOC(=O)c1cccc(NC(=O)Cn2c(CC(=O)NC)nc3ccccc32)c1
IC50 [1]: 83.3 µM (inactive) | IC50 [2]: 6.01 µM (active) | EC50 [3]: > 260 µM (inactive) | IC50 [4]: 2.05 µM (active)

O=C1N=C(NS(=O)(=O)Cc2ccccc2)S/C1=C/c1ccc2c(c1)OCO2
AC50 [5]: 2.56 µM (active)

N#Cc1c(-c2cccs2)nc(SCc2ccc(Cl)cc2)[nH]c1=O
EC50 [6]: > 79.4 µM (inactive) | IC50 (Fatty acid synthase [7]): 6.44 µM (active) | EC50 [8]: > 79.4 µM (not active) | EC50 [9]: > 79.4 µM (not active) | IC50 (Fatty acid synthase [10]): 5.61 µM (active) | IC50 (SUMO-activating enzyme [11]): 9.93 µM (active) | IC50 (Major prion protein): 1.05 µM (active) | IC50 (SUMO-activating enzyme [12]): 18 µM (active) | EC50 [13]: 4.22 µM (active)

N#Cc1c(O)nc(SCc2ccc(Cl)cc2)nc1-c1cccs1
IC50 (cells): > 138 µM (inactive) | IC50 (HEK293 [14]): 11.5 µM (active) | IC50 (HEK293 [15]): 6.99 µM (inactive) | EC50 (HEK293 [16]): 4.58 µM (active) | IC50 (HEK293 [17]): 18.9 µM (active)

COc1ccc(S(=O)(=O)N2CCCCC2)cc1N=C(S)Nc1cccc(Cl)c1C
IC50 [18]: 0.962 µM (active)

CCC(NC(=O)c1ccc2nc(Cc3ccc(OC)cc3)oc2c1)c1ccncc1 (stereo not given)
IC50 (HEK293 [14]): 8.15 µM (active) | IC50 (HEK293 [15]): 12.5 µM (inactive) | EC50 (HEK293 [16]): 4.58 µM (active) | IC50 (HEK293 [17]): 16.5 µM (active)

CN(c1ccccc1)S(=O)(=O)c1ccc(NC(=S)NC(=O)c2ccccc2)cc1
IC50 (Coagulation factor XII): > 50 µM (inactive)

Cc1cccc(NC(=O)CSCc2c(C)noc2C)c1C
IC50 (Coagulation factor XII): > 50 µM (inactive)

CC(C)C(NC(=O)CC12CC3CC(CC(C3)C1)C2)C(=O)O (stereo not given)
IC50 (Coagulation factor XII): > 50 µM (inactive)

CCN(CC)CCn1c2ccccc2c(=O)c2c(O)ccc(O)c21
AC50 [5]: 3.16 µM (active) | IC50 [19]: 64.6 µM (inactive)

CCC1(OC(=O)CN(C)C)C(=O)OCc2c1cc1n(c2=O)Cc2cc3c(N)cccc3nc2-1 (stereo not given)
IC50 [18]: 2.92 µM (active)

O=C(c1ccccc1F)N1CC[C@@H]2[C@H]1c1cc(Br)ccc1N[C@@H]2CO
AC50 [20]: 1.53 µM (active)

O=C(C[C@H]1C[C@@H]2c3cc(NC(=O)c4cccnc4)ccc3O[C@@H]2[C@@H](CO)O1)NCC(F)(F)F
AC50 [20]: 16.8 µM (active)

CCN1[C@H](C(=O)NCc2ccccc2)[C@@H](CO)[C@@H]2Cn3c(ccc(-c4cccnc4)c3=O)[C@@H]21
AC50 [20]: 13.2 µM (active)

CC(=O)Oc1ccc2c(c1)C(=O)c1ccccc1C2=O
AC50 [5]: 36.2 µM (active)

— ChEMBL document CHEMBL1201862, “PubChem BioAssay data set” (2004)
